Source: ChEMBL document CHEMBL1154295, “Potent and selective steroidal inhibitors of 17beta-hydroxysteroid dehydrogenase type 7, an enzyme that catalyzes the reduction of the key hormones estrone and dihydrotestosterone” (J Med Chem, 2009)

Legend:
[1] = target: T1, 3-keto-steroid reductase/17-beta-hydroxysteroid dehydrogenase 7 (Homo sapiens) (UniProt P56937); details: HEK293, at 0.3 µM
T1 sequence (whole entry): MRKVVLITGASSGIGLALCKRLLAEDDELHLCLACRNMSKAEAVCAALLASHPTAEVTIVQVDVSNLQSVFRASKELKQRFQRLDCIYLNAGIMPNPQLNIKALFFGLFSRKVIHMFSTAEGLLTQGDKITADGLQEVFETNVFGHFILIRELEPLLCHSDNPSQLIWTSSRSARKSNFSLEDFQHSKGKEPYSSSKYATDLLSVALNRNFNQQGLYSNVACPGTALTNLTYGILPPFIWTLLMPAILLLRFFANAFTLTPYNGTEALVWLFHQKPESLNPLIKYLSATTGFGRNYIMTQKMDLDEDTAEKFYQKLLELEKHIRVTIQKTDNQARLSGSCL
Description: Inhibition of human 17beta-HSD7 expressed in HEK293 cells assessed as inhibition of reduction of [14C]estrone into [14C]estradiol at 0.3 uM after 7 hrs

[2] = target: T1, 3-keto-steroid reductase/17-beta-hydroxysteroid dehydrogenase 7 (Homo sapiens); details: HEK293, at 3 µM
Description: Inhibition of human 17beta-HSD7 expressed in HEK293 cells assessed as inhibition of reduction of [14C]estrone into [14C]estradiol at 3 uM after 7 hrs

SMILES	inhibition [1]	inhibition [2]
COC(=O)c1cc2c(cc1O)CC[C@@H]1[C@@H]2CC[C@@]2(C)[C@H]1CC[C@@]21CCC(C)(C)C(=O)O1	21.1%	30%
CCCCCN(C(=O)CCCC)[C@H]1CC[C@H]2[C@@H]3CC[C@H]4N(C)C(=O)CC[C@]4(C)[C@H]3CC[C@]12C	27.3%	79.7%
CC1CC(=O)O[C@]2(CC[C@H]3[C@@H]4CCc5cc(O)ccc5[C@H]4CC[C@@]32C)C1 (some centres not stated)	14%	22.9%
COc1cc2c(cc1S(N)(=O)=O)CC[C@@H]1[C@@H]2CC[C@]2(C)C(=O)CC[C@@H]12	6.4%	10.3%
CN1C(=O)C=C[C@]2(C)[C@H]3CC[C@]4(C)[C@@H](N(C(=O)NC5CCCCC5)C5CC5)CC[C@H]4[C@@H]3CC[C@@H]12	8.2%	0.8%
CN(C)C(=O)CCCCCCCCCCC1Cc2cc(O)ccc2[C@H]2CC[C@]3(C)[C@@H](O)[C@H](Cl)C[C@H]3[C@H]12 (some centres not stated)	–	18.5%
C[C@]12CCC(=O)C[C@@H]1CC[C@@H]1[C@@H]2[C@@H](O)C[C@@]2(C)[C@H]1CC[C@]2(O)C(=O)CO	–	17.2%
C[C@]12C=CC(=O)C=C1CC[C@@H]1[C@@H]2CC[C@]2(C)C(=O)CC[C@@H]12	–	21.3%
C[C@]12CC[C@@H]3c4ccc(O)cc4CC[C@H]3[C@@H]1CC[C@@]21CCC(=O)O1	3.9%	3.1%
CC(C)C(=O)N(c1ccc([N+](=O)[O-])c(C(F)(F)F)c1)[C@H]1CC[C@H]2[C@@H]3CC[C@H]4N(C)C(=O)CC[C@]4(C)[C@H]3CC[C@]12C	13.7%	71.3%
CN(C)C(=O)c1ccc2c(c1)CC[C@@H]1[C@@H]2CC[C@@]2(C)[C@H]1CC[C@@]21CCC(C)(C)C(=O)O1	15.2%	36.1%
C[C@]12CC[C@@H]3c4ccc(O)cc4CC[C@H]3[C@@H]1CC[C@@]21CCCC(=O)O1	0%	13.8%
C[C@]12CC[C@@H]3c4ccc(S(N)(=O)=O)cc4CC[C@H]3[C@@H]1CCC2=O	4.2%	6.1%
O=C(c1ccc(OCN2CCCCC2)cc1)c1c(-c2ccc(O)cc2)sc2cc(O)ccc12	0%	0%
C[C@]12CC[C@H]3[C@@H](CCC4=CC(=O)CC[C@@]43C)[C@@H]1CC[C@@H]2O	–	7.5%
C[C@]12C[C@H](O)[C@H]3[C@@H](CCC4=CC(=O)CC[C@@]43C)[C@@H]1CC[C@@H]2C(=O)CO	8.1%	14.9%
C[C@]12CC[C@@H]3c4ccc(O)cc4CC[C@H]3[C@@H]1CC[C@@H]2O	1.1%	0%
C[C@]12CCC(=O)C[C@@H]1CC[C@@H]1[C@@H]2CC[C@]2(C)[C@@H](O)CC[C@@H]12	–	49.6%
C[C@]12CC[C@H]3C(=CCc4cc(O)ccc43)[C@@H]1CC[C@@H]2O	12.6%	8.8%
COc1cc2c(cc1O)CC[C@@H]1[C@@H]2CC[C@]2(C)C(=O)CC[C@@H]12	18.4%	13.4%
C[C@]12CC[C@H]3C(=CCc4cc(O)ccc43)[C@@H]1CCC2=O	–	0%
COC(=O)[C@H]1CC[C@H]2[C@@H]3CC=C4C=C(Cl)CC[C@]4(C)[C@H]3CC[C@]12C	0.6%	16.2%

SMILES	inhibition [1]	inhibition [2]
C[C@]12CCC(=O)C[C@@H]1CC[C@@H]1[C@@H]2CC[C@@]2(C)[C@H]1CC[C@]2(O)C(=O)CO	–	13.4%
C[C@]12CC[C@H](O)C[C@@H]1CC[C@@H]1[C@@H]2CC[C@]2(C)[C@@H](O)CC[C@@H]12	–	4.5%
COc1ccc(N(C(=O)C(C)C)[C@H]2CC[C@H]3[C@@H]4CC[C@H]5N(C)C(=O)CC[C@]5(C)[C@H]4CC[C@]23C)cc1	41.1%	99.8%
C[C@]12CC[C@@H](O)C[C@@H]1CC[C@@H]1[C@@H]2CC[C@]2(C)C(=O)CC[C@@H]12	–	2.2%
C[C@]12CC[C@](O)(Cc3ccccc3)C[C@@H]1CC[C@@H]1[C@@H]2CC[C@]2(C)C(=O)CC[C@@H]12	19.3%	22.2%
CC(C)(C)NC(=O)[C@H]1CC[C@H]2[C@@H]3CC[C@H]4NC(=O)C=C[C@]4(C)[C@H]3CC[C@]12C	3.7%	5.4%
C[C@]12CCc3c(ccc4cc(O)ccc34)[C@@H]1CCC2=O	–	14.2%
CCS(=O)(=O)Oc1ccc2c(c1)CC[C@@H]1[C@@H]2CC[C@@]2(C)[C@H]1CC[C@@]21CCC(C)(C)C(=O)O1	21%	60.9%
CC1(C)C[C@@]2(CC[C@H]3[C@@H]4CCc5cc(O)ccc5[C@H]4CC[C@@]32C)OC1=O	14.5%	42.4%
CC1CC[C@@]2(CC[C@H]3[C@@H]4CCc5cc(O)ccc5[C@H]4CC[C@@]32C)OC1=O (some centres not stated)	14.4%	32.1%
O=c1c(-c2ccc(O)cc2)coc2cc(O)cc(O)c12	0%	0%
C[C@]12CCC(=O)C(O)=C1CC[C@@H]1[C@@H]2CC[C@]2(C)C(=O)CC[C@@H]12	8.1%	7.1%
CC(=O)S[C@@H]1CC2=CC(=O)CC[C@]2(C)[C@H]2CC[C@@]3(C)[C@@H](CC[C@@]34CCC(=O)O4)[C@H]12	7.2%	7.5%
CCCNC(=O)N(C1CC1)[C@H]1CC[C@H]2[C@@H]3CC[C@H]4N(C)C(=O)C=C[C@]4(C)[C@H]3CC[C@]12C	7.8%	8.5%
CC(C)(C#N)c1cc(Cn2cncn2)cc(C(C)(C)C#N)c1	6.5%	0.3%
CCCN(CC1C2CC3CC(C2)CC1C3)C[C@@]1(O)CC[C@@]2(C)[C@@H](CC[C@@H]3[C@@H]2CC[C@]2(C)C(=O)CC[C@@H]32)C1 (some centres not stated)	29%	18.8%
C[C@]12CC[C@@H]3c4ccc(O)cc4CC[C@H]3[C@@H]1CC[C@H]2O	–	0%
CC(C)(C)NC(=O)[C@H]1CC[C@H]2[C@@H]3CC=C4C=C(Cl)CC[C@]4(C)[C@H]3CC[C@]12C	13.4%	56.8%
C[C@]12CC[C@H]3[C@@H](CC=C4C[C@@H](O)CC[C@@]43C)[C@@H]1CC[C@@H]2O	–	29.7%
CCC[C@]1(O)CC[C@H]2[C@@H]3CC[C@H]4N(C)C(=O)CC[C@]4(C)[C@H]3CC[C@@]21C	47.6%	98.5%
CN1C(=O)CC[C@]2(C)[C@H]3CC[C@]4(C)[C@@H](N(C=O)Cc5ccccc5)CC[C@H]4[C@@H]3CC[C@@H]12	31.6%	77.6%
C[C@]12CC[C@](O)(CCc3ccccc3)C[C@@H]1CC[C@@H]1[C@@H]2CC[C@]2(C)C(=O)CC[C@@H]12	0%	17.4%

SMILES	inhibition [1]	inhibition [2]
CC1(C)CC[C@@]2(CC[C@H]3[C@@H]4CCc5cc(C(=O)Oc6ccccc6)ccc5[C@H]4CC[C@@]32C)OC1=O	14%	28.6%
CC1=C(c2ccc(O)cc2)[C@H](c2ccc(OCCN3CCCCC3)cc2)Oc2cc(O)ccc21	3.1%	4.2%
CC(=O)[C@H]1CC[C@H]2[C@@H]3CCC4=CC(=O)CC[C@]4(C)[C@H]3CC[C@]12C	7.3%	19.1%
CN1C(=O)CC[C@]2(C)[C@H]3CC[C@]4(C)[C@@H](N(C(=O)NC5CCCCC5)C5CC5)CC[C@H]4[C@@H]3CC[C@@H]12	8.4%	54.7%
C[C@]12CC=C3c4ccc(O)cc4CC[C@H]3[C@@H]1CCC2=O	–	24%
CCC(=C(c1ccc(O)cc1)c1ccc(OCCN(C)C)cc1)c1ccccc1	–	3%
C[C@]12CC[C@@H]3c4ccc(O)cc4CC[C@H]3[C@@H]1CCC2=O	–	10.1%
CC(=O)[C@H]1CC[C@H]2[C@@H]3CC=C4C[C@@H](O)CC[C@]4(C)[C@H]3CC[C@]12C	–	13.2%
C[C@]12CC[C@@H]3c4ccc(O)cc4CC[C@H]3[C@@H]1C[C@@H](O)[C@@H]2O	–	29.5%
CC(=O)[C@@]1(O)CC[C@H]2[C@@H]3CC=C4C[C@@H](O)CC[C@]4(C)[C@H]3CC[C@@]21C	–	4.1%
C[C@]12CCC(=O)C=C1CC[C@@H]1[C@@H]2[C@@H](O)C[C@@]2(C)[C@H]1CC[C@]2(O)C(=O)CO	–	10.3%
CC(C)(O)C(=O)Nc1ccc([N+](=O)[O-])c(C(F)(F)F)c1	–	8.2%
C[C@]12CC[C@H](O)C=C1CC[C@@H]1[C@@H]2CC[C@]2(C)C(=O)CC[C@@H]12	–	12.2%
C[C@]12CC[C@H](O)C[C@@H]1CC[C@@H]1[C@@H]2CC[C@]2(C)C(=O)CC[C@@H]12	–	8.1%
CC(=O)[C@@]1(O)CC[C@H]2[C@@H]3CCC4=CC(=O)CC[C@]4(C)[C@H]3CC[C@@]21C	–	20.8%
CC(=O)[C@@]1(O)CC[C@H]2[C@@H]3CC[C@H]4CC(=O)CC[C@]4(C)[C@H]3CC[C@@]21C	–	14.5%
C[C@]12CC[C@@H]3c4ccc(O)cc4C[C@@H](CCCCCCCCC[S+]([O-])CCCC(F)(F)C(F)(F)F)[C@H]3[C@@H]1CC[C@@H]2O (some centres not stated)	–	15.7%
CC1(C)CC[C@@]2(CC[C@H]3[C@@H]4CCc5ccccc5[C@H]4CC[C@@]32C)OC1=O	–	18.6%
CCCCCCCCCCN(C(=O)c1ccc(Cl)cc1)[C@H]1CC[C@H]2[C@@H]3CC[C@H]4N(C)C(=O)CC[C@]4(C)[C@H]3CC[C@]12C	58%	–
CCCCCCCCCCN(C(=O)c1c(F)c(F)c(F)c(F)c1F)[C@H]1CC[C@H]2[C@@H]3CC[C@H]4N(C)C(=O)CC[C@]4(C)[C@H]3CC[C@]12C	28%	–
CCCCCCCN(C(=O)c1ccc(F)cc1F)[C@H]1CC[C@H]2[C@@H]3CC[C@H]4N(C)C(=O)CC[C@]4(C)[C@H]3CC[C@]12C	73%	–
CCCCCCCN(C(=O)c1ccc(C(C)(C)C)cc1)[C@H]1CC[C@H]2[C@@H]3CC[C@H]4N(C)C(=O)CC[C@]4(C)[C@H]3CC[C@]12C	29%	–
